From patent EP4722228A1, “NEW COMPOUND TARGETING MUSK AND USE THEREOF” (The University of Tokyo, priority 2023, dated 2024)
Numbered stars: 1 amine (or outer) side, 2 acyl side, 3 side chain; on linkers, the order of the positions; unused ones are H or OH. Bridge positions count the residues as written; N and C are the ends. Square brackets hold non-standard residues; d marks the D form. Peptide text beside a SMILES is read from it. I, II: the chains in the order shown. X1 = O=C(CCN1C(=O)CC([*:1])C1=O)NCCOCCOCCOCCOCCOCCOCCOCCOCCOCCOCCOCCNC(=O)CCN1C(=O)CC([*:2])C1=O

Legend:
[1] = target: T1, human MuSK (Homo sapiens, UniProt O15146); assay: SPR binding activity test to human MuSK (Biacore); settings: human MuSK, peptide homodimers
T1 construct: DNA corresponding to the extracellular portion (amino acids 1-493) was amplified by a PCR method; made in house; host or cells: Expi293F cells
T1 sequence (O15146 24-493): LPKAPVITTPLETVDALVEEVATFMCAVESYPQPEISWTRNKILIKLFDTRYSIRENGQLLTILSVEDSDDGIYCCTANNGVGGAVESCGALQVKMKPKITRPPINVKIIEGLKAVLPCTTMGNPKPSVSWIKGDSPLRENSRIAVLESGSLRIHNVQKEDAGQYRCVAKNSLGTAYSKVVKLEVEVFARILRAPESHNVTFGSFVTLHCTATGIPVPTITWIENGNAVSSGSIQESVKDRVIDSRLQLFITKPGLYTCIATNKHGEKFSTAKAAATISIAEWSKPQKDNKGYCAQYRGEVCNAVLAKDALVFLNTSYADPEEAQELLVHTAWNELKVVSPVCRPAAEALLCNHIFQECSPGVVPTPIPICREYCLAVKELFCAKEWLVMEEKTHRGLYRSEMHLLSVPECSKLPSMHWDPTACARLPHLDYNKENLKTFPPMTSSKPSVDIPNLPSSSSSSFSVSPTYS
Protocol: The human MuSK protein (extracellular portion) was prepared as a recombinant protein as follows. Using a Flexi clone (FXC31275, Promega Corporation) encoding Human MuSK isoform 1 precursor (NCBI Reference Sequence: NP_005583.1) as a template, DNA corresponding to the extracellular portion (amino acids 1-493) was amplified by a PCR method. XhoI and EcoRI restriction enzyme recognition sequences were added to both the 5' and 3' ends of the amplified DNA sequence, and these were used for insertion into the multiple cloning site of a pCAG-Neo hIgG1-Fc plasmid (Fujifilm Wako Pure Chemical Corporation). This plasmid (pCAG-Neo hMuSK-Fc) enables expression of a chimeric protein of the secretory human MuSK extracellular portion and human IgG1 Fc (hMuSK-Fc; molecular weight of approximately 200 kDa) in animal cells. In practice, ExpiFectamine 293 reagent (Invitrogen) was used to transfect the pCAG-Neo hMuSK-Fc plasmid into Expi293F cells (Invitrogen), and shaking culture was carried out (for 6 days) in an incubator containing 8% CO2. Next, the culture supernatant was collected, centrifuged, and sterilized by filtration through a 0.22 µm filter. The obtained culture supernatant was subjected to Protein G purification, and finally, a purified hMuSK-Fc sample with 99.96% purity (AKTA-FPLC analysis) was obtained.
The strength of binding between MuSK and the cyclic peptides was evaluated by quantitatively measuring the binding kinetics (binding affinity (dissociation constant) KD) of the cyclic peptides to MuSK immobilized on a sensor chip via an Fc tag, using surface plasmon resonance (SPR).
According to the standard immobilization protocol provided by the manufacturer, Fc-tagged human/mouse/rat MuSK was immobilized on a Protein G chip or a Protein A chip (Cytiva). A running buffer for the monomer/dimer peptides contained 0.010 M phosphate, 0.14 M NaCl, 0.0027 M KCl, 0.05% (v/v) Tween 20, and 0.1% (v/v) DMSO. A running buffer for the monomer/dimer U-bodies contained 0.010 M phosphate, 0.14 M NaCl, 0.0027 M KCl, and 0.05% (v/v) Tween 20. A series of concentrations of each monomer peptide, dimer peptide, monomer U-body, and dimer U-body was injected as analytes. A 1:1 binding fitting analysis was applied using Biacore evaluation software, and ka, kd, and KD values were determined.
Fc-tagged human MuSK was prepared according to the procedure described in Example 1(1). In addition, Fc-tagged mouse MuSK was used by expressing a nucleotide sequence encoding the Fc-tagged mouse MuSK extracellular domain (SEQ ID NO: 34). In addition, Fc-tagged rat MuSK was used as a chimeric protein of rat MuSK and an Fc protein, namely, Recombinant Rat MuSK Fc Chimera Protein (catalog number: 9847-MK-050, R&D Systems).
The affinity of the U-bodies and their complexes obtained as described above for MuSK of human, rat, and mouse was evaluated (binding activity test). The test was carried out according to the procedure described in Example 1(3). However, for the complexes of U-bodies, surface plasmon resonance (SPR) analysis was carried out using a Biacore 8K (Cytiva).

[2] = tested on: mouse myoblast-derived cell line C2C12; assay: Induction of AChR clusters in myotube cells and quantitative analysis (fluorescent α-bungarotoxin); type: cell-based; settings: 20 hours after addition
Description: (§1) The mouse myoblast-derived cell line C2C12 (CRL-1772) was purchased from the American Type Culture Collection and used. For subculture, Dulbecco's Modified Eagle Medium (DMEM, high glucose, GlutaMAX supplement, pyruvate; GIBCO) supplemented with 20% fetal bovine serum (FBS; GIBCO) was used. For passage, after the culture medium was removed by suction, adherent cells were washed with phosphate buffered saline (PBS(-)), and HBSS (GIBCO) containing no Mg^2+ and Ca^2+ and containing 0.25% trypsin and 1 mM ethylenediaminetetraacetic acid was added, and the mixture was reacted in a CO2 incubator (37°C, 5% CO2) for 5 minutes. […]
After washing several times with 1% BSA-PBS(-), fluorescently labeled α-bungarotoxin (α-Btx, Alexa Fluor 488 conjugate; Invitrogen) was added to 1% BSA-PBS(-) at a final concentration of 100 nM, and after adding this to the wells, the mixture was allowed to stand at room temperature under a light-shielded condition for 30 minutes. After washing the cells several times with 1% BSA-PBS(-), 100 µL of PBS(-) was added to each well, and fluorescence observation was performed using a fluorescence imaging device. […] During fluorescence image observation, a 10× objective lens was used, and tiff images of an area equivalent to 1 mm^2 were obtained. […] The average number of AChR clusters counted from the three tiff images derived from the same well was calculated and drawn on a graph.

[3] = tested on: C2C12 myotubes (Agrin-induced AChR clusters); assay: Agrin-induced AChR clusters in myotubes with tyrosine kinase inhibitors; type: cell-based, mouse; settings: 10 pM recombinant rat agrin, 20 hours; for number of AChR clusters / MuSK inhibitory effects: inhibitor (3 nM) added simultaneously; for MuSK inhibitory effects: presumed
Description: The mouse myoblast-derived cell line C2C12 (CRL-1772) was purchased from the American Type Culture Collection and used. For subculture, Dulbecco's Modified Eagle Medium (DMEM, high glucose, GlutaMAX supplement, pyruvate; GIBCO) supplemented with 20% fetal bovine serum (FBS; GIBCO) was used. For passage, after the culture medium was removed by suction, adherent cells were washed with phosphate buffered saline (PBS(-)), and HBSS (GIBCO) containing no Mg^2+ and Ca^2+ and containing 0.25% trypsin and 1 mM ethylenediaminetetraacetic acid was added, and the mixture was reacted in a CO2 incubator (37°C, 5% CO2) for 5 minutes. The detached cells were collected and then centrifuged at 1000 rpm at 4°C for 5 minutes (Sorvall X4R Pro, Thermo Fisher Scientific Inc.). After the supernatant was removed by suction, the cells were suspended in fresh culture medium, and 100 µL was seeded into a 96-well plate (BioCoat Collagen I 96-well Black/Clear plate, Corning Inc.) and cultured in a CO2 incubator (37°C, 5% CO2) until reaching confluence, typically within 72 hours. Subsequently, the culture medium was removed and the first medium change was performed with DMEM containing 2% horse serum (GIBCO) for induction of myotube cell differentiation.
A differentiation medium supplemented with an appropriate amount of the homodimer of the cyclic peptide MuSK7 (MuSK7 PEG11 dimer) was prepared in advance in a 96-well plate (Nunclon Δ Surface, 167008, Nunc), and used at 100 µL/well at the time of the second medium change in the process of inducing differentiation into myotubes. 20 hours after addition of the homodimer of the cyclic peptide MuSK7, the medium was removed, the cells were washed with PBS(-), and then fixed at room temperature for 15 minutes with PBS(-) containing 4% formaldehyde. After washing several times with 1% BSA-PBS(-), fluorescently labeled α-bungarotoxin (α-Btx, Alexa Fluor 488 conjugate; Invitrogen) was added to 1% BSA-PBS(-) at a final concentration of 100 nM, and after adding this to the wells, the mixture was allowed to stand at room temperature under a light-shielded condition for 30 minutes. After washing the cells several times with 1% BSA-PBS(-), 100 µL of PBS(-) was added to each well, and fluorescence observation was performed using a fluorescence imaging device. For observation of fluorescently labeled AChR clusters, an EVOS M7000 imaging system (Thermo Fisher Scientific Inc.) was used. During fluorescence image observation, a 10× objective lens was used, and tiff images of an area equivalent to 1 mm^2 were obtained. […] The average number of AChR clusters counted from the three tiff images derived from the same well was calculated and drawn on a graph.
MuSK inhibitor candidates were searched in the KinaseNET database (http://www.kinasenet.ca/) published as an open resource by Kinexus Bioinformatics Corporation (Canada), and three tyrosine kinase inhibitors (AST-487, Foretinib, and Sorafenib) were identified. Next, groups were prepared in which 10 pM recombinant rat agrin protein (550-AG, R&D Systems) derived from C2C12 myotubes was added alone, or in which each tyrosine kinase inhibitor (3 nM) was added simultaneously, and detection and observation of Agrin-induced AChR clusters were performed 20 hours after compound addition (five types, Crizotinib, Linifanib, AST-1306, Dovitinib, and BMS-754807, were used as non-MuSK inhibitory tyrosine kinase inhibitors).

[4] = tested on: C2C12 myotubes (AChR clusters); assay: Induction of AChR clusters in myotube cells by the MuSK7 homodimer, with or without AST-487; type: cell-based, mouse; settings: in the presence of AST-487
Description: as §1
A differentiation medium supplemented with an appropriate amount of the homodimer of the cyclic peptide MuSK7 (MuSK7 PEG11 dimer) was prepared in advance in a 96-well plate (Nunclon Δ Surface, 167008, Nunc), and used at 100 µL/well at the time of the second medium change in the process of inducing differentiation into myotubes. […] After washing the cells several times with 1% BSA-PBS(-), 100 µL of PBS(-) was added to each well, and fluorescence observation was performed using a fluorescence imaging device. […] During fluorescence image observation, a 10× objective lens was used, and tiff images of an area equivalent to 1 mm^2 were obtained. […] The average number of AChR clusters counted from the three tiff images derived from the same well was calculated and drawn on a graph. […]

## CC(C)C[C@@H]1NC(=O)[C@H](CO)NC(=O)[C@H](C)NC(=O)[C@H](C(C)C)NC(=O)[C@H](C(C)C)NC(=O)[C@H](CC(N)=O)NC(=O)[C@H]([C@@H](C)O)NC(=O)[C@H](Cc2c[nH]cn2)NC(=O)[C@H](Cc2ccc(O)cc2)NC(=O)[C@H](CO)NC(=O)[C@@H]2CCCN2C(=O)[C@@H](Cc2ccc(O)cc2)NC(=O)CSC[C@@H](C(=O)N[C@@H](CSC2CC(=O)N(CCC(=O)NCCOCCOCCOCCOCCOCCOCCOCCOCCOCCOCCOCCNC(=O)CCN3C(=O)CC(SC[C@H](NC(=O)[C@@H]4CSCC(=O)N[C@H](Cc5ccc(O)cc5)C(=O)N5CCC[C@H]5C(=O)N[C@@H](CO)C(=O)N[C@@H](Cc5ccc(O)cc5)C(=O)N[C@@H](Cc5c[nH]cn5)C(=O)N[C@@H]([C@@H](C)O)C(=O)N[C@@H](CC(N)=O)C(=O)N[C@@H](C(C)C)C(=O)N[C@@H](C(C)C)C(=O)N[C@@H](C)C(=O)N[C@@H](CO)C(=O)N[C@@H](CC(C)C)C(=O)N[C@@H](CCCCN)C(=O)N[C@@H](CCCNC(=N)N)C(=O)N4)C(N)=O)C3=O)C2=O)C(N)=O)NC(=O)[C@H](CCCNC(=N)N)NC(=O)[C@H](CCCCN)NC1=O (stereo partly drawn) [MuSK7 PEG11 dimer] (I: {CH2CO}-[dY]PSYHTNVVASLKRCC-NH2 / II: {CH2CO}-[dY]PSYHTNVVASLKRCC-NH2; linker I:16-II:16 via X1; thioether I:N-I:15, II:N-II:15)
[1]
  koff: 0.00051 s⁻¹
  kon: 390000 M⁻¹ s⁻¹
[1]; read-out: Kd
  Kd: 1.3 nM
[2]; compound concentration exceeded 1 µM
  number of AChR clusters: conversely tended to decrease
[2]; concentration range from the pM order to 1 µM
  number of AChR clusters: increased in a dose-dependent manner

## C[C@@]1(C(=O)Nc2ccc(F)nc2)CCCN1c1nc(Nc2cc(C3CC3)n[nH]2)c2cccn2n1 [BMS-754807]
[3]
  number of AChR clusters: comparable to that in the negative control group (DMSO alone)

## C=CC(=O)Nc1ccc2ncnc(Nc3ccc(OCc4cccc(F)c4)c(Cl)c3)c2c1 [AST-1306]
[3]
  number of AChR clusters: comparable to that in the negative control group (DMSO alone)

## CCN1CCN(Cc2ccc(NC(=O)Nc3ccc(Oc4cc(NC)ncn4)cc3)cc2C(F)(F)F)CC1 [AST-487]
[4]
  AChR cluster formation by the homodimer of the cyclic peptide MuSK7: no AChR clusters were detected
[3]; inhibitor added simultaneously, low concentration range of 1 nM
  Agrin-induced AChR cluster formation: no AChR cluster formation was observed

## COc1cc2c(Oc3ccc(NC(=O)C4(C(=O)Nc5ccc(F)cc5)CC4)cc3F)ccnc2cc1OCCCN1CCOCC1 [Foretinib]
[3]
  MuSK inhibitory effects: weaker MuSK inhibitory effects compared with AST-487

## C[C@@H](Oc1cc(-c2cnn(C3CCNCC3)c2)cnc1N)c1c(Cl)ccc(F)c1Cl [Crizotinib]
[3]
  number of AChR clusters: comparable to that in the negative control group (DMSO alone)

## CNC(=O)c1cc(Oc2ccc(NC(=O)Nc3ccc(Cl)c(C(F)(F)F)c3)cc2)ccn1 [Sorafenib]
[3]
  MuSK inhibitory effects: weaker MuSK inhibitory effects compared with AST-487
